# Experimental data as given in patent US4113864A (priority 1967, dated 1978).
# Like-named read-outs stand apart in the source and are kept apart here.
# Columns and labels:
# [1] = tested on: rice blast fungi (Pyricularia orysae); type: in vivo
# [2] = tested on: rice blast fungi (Pyricularia oryzae); type: in vivo
# [3] = tested on: Adzuki bean weevils (Callosobruchus chinensis Linne); type: in vivo; details: emulsifiable concentrate; dip 1 minute; after 24 hours
# [4] = tested on: carmine mites (Tetranychus telarius Linne); assay: Test Example 7: leaf dipping test on carmine mites, mortality after 48 hours; type: in vivo; details: wettable powder, leaf dip 1 minute
# Protocol: Mottled kidney bean plants at the 2 leaves-stage, which had elapsed 20 days after sowing were parasitized with a large number of carmine mites (Tetranychus telarius Linne). […] Subsequently, water was added so as not to wither the leaves. After 48 hours, the alive and dead of the mites were observed.
# [5] = tested on: carmine mite (Tetranychus telarius Linne); assay: whole plant or invertebrate; details: in Phaseolus vulgaris
# [6] = tested on: carmine mites (Tetranychus terarius Linne); assay: whole plant or invertebrate; details: in Glycine max, 72 h, read-out: Mortality (%) (average of 2 sections)
# [7] = tested on: northern house mosquitoes (Culex pipiens pallens Coquillett); assay: whole plant or invertebrate; type: in vivo; details: granules in water, after 24 hours
# Text: Well water was charged into a 500 cc. beaker. Into the water, full grown larvae of northern house mosquitoes (Culex pipiens pallens Coquillett) were liberated, and the present compounds (12), (16), (17), (23), (25), (26), (27), (29), (30), (85), (87), (88), (89), (94), (95), (96), (97), (100), (102), (103), (104), (105), (106), (107), (108), (109) and (110) in the form of granules were individually charged.
# [8] = tested on: carmine mites (Tetranychus telarius Linne); assay: whole plant or invertebrate; details: in Phaseolus vulgaris
# [9] = tested on: rice stem borers (Chilo suppressalis Walker); assay: Test Example 4: mortality of rice stem borers on sprayed rice plants; type: in vivo; details: diluted 2,000 times; 6 cc. per pot; wettable powder; 4320 min
# Protocol: A rice plant at the tillering stage was grown in a Wagner pot. Onto the rice plant were adhered and encroached eggs of rice stem borers (Chilo suppressalis Walker) immediately before hatching. After 3 days, the rice plant was sprayed with 6 cc. per pot of a solution prepared by diluting with water to 2,000 times the present compound (2) in the form of a wettable powder.
# [10] = tested on: rice steam borers (Chilo suppressalis Walker); assay: Test Example 11: mortality of rice stem borers on sprayed rice plants; type: in vivo; details: diluted 2,000 times, 6 cc. per pot, wettable powder
# Text: (§1) Rice plants at the tillering stage were individually grown in Wagner pots. Onto the rice plants were adhered and encroached eggs of rice steam borers (Chilo suppressalis Walker) immediately before hatching. After 3 days, the rice plants were individually sprayed with each 6 cc. per pot of solutions prepared by diluting with water to 2,000 times the present compounds (11), (14), (15) and (31) in the form of wettable powders.
# [11] = tested on: rice stem borers (Chilo suppressalis Walker); assay: Test Example 20: mortality of rice stem borers on sprayed rice plants; type: in vivo; details: diluted 2,000 times; 6 cc. per pot; wettable powder; after additional 5 days
# Text: as §1, with “stem” for “steam”, “(58) to (62), (65), (68), (85), (88), (96), (104), (107), (109), (110)” for “(11), (14), (15)”, “(112)” for “(31)”
# [12] = tested on: carmine mites (Tetranychus terarius Linne); assay: Test Example 16: leaf dipping test on carmine mites, mortality after 48 hours; type: in vivo; details: wettable powder, leaf dip 1 minute
# Protocol: Mottled kidney bean plants at the 2 leaves-stage, which had elapsed 20 days after sowing, were parasitized with a large number of carmine mites (Tetranychus terarius Linne). The leaves of said plants parasitized with the mites were individually dipped for 1 minute in each of solutions prepared by diluting with water the present compounds (35) to (37), (41) to (44) and (46) to (56) in the form of wettable powders. Subsequently, water was added so as not to wither the leaves. After 48 hours, the alive and dead of the mites were observed.
# [13] = tested on: carmine mite (Tetranychus teralius Linne); details: dust 4 kg/10 ares
# [14] = tested on: carmine mites (Tetranychus terarius Linne); details: diluted 2,000 times; 100 Kg/10 ares; field; after 3 days
# [15] = tested on: Small brown plant hopper (Laoclelphex striatellus Fallen); assay: Test Example 15: insecticidal effects on small brown plant hopper; type: in vivo, Laodelphax striatellus Fallen; details: rice seedlings dipped 1 minute in emulsion; after 24 hours
# Protocol: Insecticidal effects on Small brown plant hopper (Laoclelphex striatellus Fallen)
# Rice seedlings (15-20 cm. in height), which had elapsed 15 days after germination, were individually dipped for 1 minute in emulsions prepared by diluting with water to given concentrations the present compounds (10), (14), (19), (23), (31), (85), (88), (90), (93), (94), (103), (104), (106) and (109) in the form of emulsifiable concentrates. After air-drying, the rice seedlings were individually charged into test glass tubes, and 20-30 plant hoppers (Laodelphax striatellus Fallen) were liberated in each tube, and the tube was covered with gauze.
# [16] = tested on: carmine mite (Tetranychus telarius Linne); details: dust 4 kg/10 ares
molecule,measurement,setting,value
"CCOP(=O)(OCC)SCc1ccccc1 [0,0-Diethyl-S-benzyl-phosphorothioate, reference compound]",Curative value,[1]; 500 p.p.m.,69.1
same,Curative value,"[2]; 1,000 p.p.m.",78.6
"CCOC(=O)CC(SP(=S)(OC)OC)C(=O)OCC (stereo not drawn) [0,0-Dimethyl-S-(1,2-dicarboethoxyethyl) phosphorodithioate, reference compound]",LC50 (diluted times),[3],"8,800 diluted times"
"CCOP(=S)(OCC)SC1OCCOC1SP(=S)(OCC)OCC (stereo not drawn) [2,3-p-Dioxane S,S-bis-(0,0-diethyl phosphorodithioate), reference compound]",LC50 (diluted times),[4],"1,000,000 diluted times"
"CCCCSP(=O)(OCC)Oc1ccccc1 (stereo not drawn) [(1), O-ethyl-O-phenyl-S-n-butyl phosphorothiolate]",Curative value,[1]; 500 p.p.m.,80.1
"CCOP(=O)(Oc1ccccc1)SCCSc1ccccc1 (stereo not drawn) [(5), O-ethyl-O-phenyl-S-2-phenylthioethyl-phosphorothiolate]",mortality at 4 kg/10 ares,[5]; 48 h,100%
same,mortality at 4 kg/10 ares,[5]; 120 h,98.8%
same,mortality at 4 kg/10 ares,[5]; 216 h,83.4%
same,mortality at 4 kg/10 ares,[5]; 312 h,34.4%
"C=CCSP(=O)(OCC)Oc1ccc(C)cc1 (stereo not drawn) [(33), O-ethyl-O-4-methylphenyl-S-allyl-phosphorothiolate]",mortality at 2000 fold dilution,[6],90.7%
CCCSP(=O)(OCC)Oc1cc(C)c(Cl)c(C)c1 (stereo not drawn) [(87)],LC50,"[7]; Culex pipiens, read-out: LC50",0.054 µg/mL
same,mortality at 2000 fold dilution,[6],90.6%
same,mortality at 4 kg/10 ares,[8]; 48 h,100%
same,mortality at 4 kg/10 ares,[8]; 120 h,93.7%
same,mortality at 4 kg/10 ares,[8]; 216 h,82.3%
same,mortality at 4 kg/10 ares,[8]; 312 h,31.6%
"CCOC(=O)C(O)(c1ccc(Cl)cc1)c1ccc(Cl)cc1 [Ethyl 4,4'-dichlorobenzilate, reference compound]",LC50 (diluted times),[4],"100,000 diluted times"
"COP(=S)(OC)Oc1ccc([N+](=O)[O-])c(C)c1 [O,O-dimethyl-O-3-methyl-4-nitrophenyl phosphorothioate]",Mortality (%),[9],94.3%
same,mortality at 2000 fold dilution,"[10]; Chilo suppressalis, 72 h",94.3%
same,Mortality (%),[11],94.3%
"O-ethyl-O-2,4-dichlorophenyl-S-N-phthalimidemethyl-phosphorothiolate [(53)]",LC50 (times diluted),[12],"1,000,000 times diluted"
"O-ethyl-O-2,4-dichlorophenyl-S-allyl phosphorothiolate [(49)]",LC50 (times diluted),[12],"60,000 times diluted"
"O-ethyl-O-2,4-dichlorophenyl-S-sec-butyl-phosphorothiolate [(50)]",LC50 (times diluted),[12],"90,000 times diluted"
O-ethyl-O-2-chlorophenyl-S-2-phenylethyl phosphorothiolate [(13)],LC50 (diluted times),[4],"1,000,000 diluted times"
same,Mortality (%),[13]; After 2 days,100%
same,Mortality (%),[13]; After 5 days,95.3%
same,Mortality (%),[13]; After 9 days,92.1%
same,Mortality (%),[13]; After 13 days,61.2%
O-ethyl-O-2-chlorophenyl-S-allyl-phosphorothiolate [(46)],LC50 (times diluted),[12],"80,000 times diluted"
O-ethyl-O-2-chlorophenyl-S-propargyl phosphorothiolate [(48)],LC50 (times diluted),[12],"150,000 times diluted"
O-ethyl-O-2-chlorophenyl-S-sec-butyl-phosphorothiolate [(47)],LC50 (times diluted),[12],"15,000 times diluted"
"O-ethyl-O-3,4-dimethyl-S-2-phenylthioethylphosphorothiolate [(52)]",LC50 (times diluted),[12],"900,000 times diluted"
"O-ethyl-O-3,4-dimethylphenyl-S-2-phenylethyl-phosphorothiolate [(9)]",LC50 (diluted times),[3],"200,000 diluted times"
same,Mortality (%),[13]; After 2 days,100%
same,Mortality (%),[13]; After 5 days,99.2%
same,Mortality (%),[13]; After 9 days,83.4%
same,Mortality (%),[13]; After 13 days,53.4%
"O-ethyl-O-3,5-dimethyl-4-chlorophenyl-S-sec-butyl phosphorothiolate [(54)]",LC50 (times diluted),[12],"70,000 times diluted"
O-ethyl-O-4-chlorophenyl-3-sec-butyl phosphorothiolate [(44)],LC50 (times diluted),[12],"330,000 times diluted"
O-ethyl-O-4-chlorophenyl-S-2-ethylthio-ethyl-phosphorothiolate [(51)],LC50 (times diluted),[12],"1,200,000 times diluted"
"O-ethyl-O- 3,4-dimethylphenyl-s-(sec)-butyl phosphorothiolate [(37)]",LC50 (times diluted),[12],"50,000 times diluted"
O-ethyl-O- 3-methyl-4-chlorophenyl-S-2-phenylethyl-phosphorothiolate [(12)],LC50 (diluted times),[3],"180,000 diluted times"
same,LC50,[7],0.02 p.p.m.
same,Mortality (%) (average of 2 sections),[14],100.0%
O-ethyl-O- 3-methylphenyl-S-2-phenylethyl phosphorothiolate [(10)],LC50 (diluted times),[4],"6,000,000 diluted times"
same,LC50 (diluted times),[3],"300,000 diluted times"
same,LC50 (times diluted),[15],"512,000 times diluted"
O-ethyl-O- 3-methylphenyl-S-(sec)-butyl-phosphorothiolate [(42)],LC50 (times diluted),[12],"1,100,000 times diluted"
O-ethyl-O- 3-methylphenyl-S-allyl-phosphorothiolate [(41)],LC50 (times diluted),[12],"1,100,000 times diluted"
O-ethyl-O- 4-(tert)-butylphenyl-S-allyl phosphorothiolate [(36)],LC50 (times diluted),[12],"540,000 times diluted"
O-ethyl-O- 4-chlorophenyl-S-2-phenylethyl phosphorothiolate [(11)],LC50 (diluted times),[4],"256,000 diluted times"
same,LC50 (diluted times),[3],"105,000 diluted times"
same,Mortality (%),[10]; 4320 min,96.3%
same,Curative value,[2]; in vivo,87.1
O-ethyl-O- 4-chlorophenyl-S-allylphosphorothiolate [(43)],LC50 (times diluted),[12],"11,000 times diluted"
O-ethyl-O- 4-methylphenyl-S-(sec)-butyl-phosphorothiolate [(34)],Curative value,[2]; in vivo,97.2
same,Mortality (%) (average of 2 sections),[14],96.4%
O-ethyl-O- 4-methylphenyl-S-propargyl phosphorothiolate [(35)],LC50 (times diluted),[12],"12,000,000 times diluted"
O-ethyl-O-phenyl-S-2-phenylethyl-phosphorothiolate [(4)],Mortality (%),[16]; After 2 days,100%
same,Mortality (%),[16]; After 5 days,92.4%
same,Mortality (%),[16]; After 9 days,81.3%
same,Mortality (%),[16]; After 13 days,70.3%
O-ethyl-O-phenyl-S-allylphosphorothiolate [(3)],Curative value,[1]; in vivo,98.6
O-ethyl-O-phenyl-S-sec-butyl phosphorothiolate [(55)],LC50 (times diluted),[12],"90,000 times diluted"
Phenylmercuric acetate [reference compound],Curative value,[1]; in vivo,47.6
same,Curative value,[2]; in vivo,47.7
